Experimental findings from EP1333824B1, “TREATMENT OF SEXUAL DYSFUNCTION WITH BOMBESIN RECEPTOR ANTAGONISTS” (Warner-Lambert Company LLC, priority 2000, dated 2002) are described below.

In assay [1] the test system is Ovariectomised adult female Sprague Dawley rats. The experiment in a line: Female rat sexual receptivity test (lordosis quotient, LQ). It counts as in vivo. As to conditions: Example 2; after vs before administration (paired t test); Compound (1) 10mg/kg i.p. 1h; quinelorane 6.25µg/kg s.c. 90min. The protocol: Ovariectomised adult female Sprague Dawley rats (180-200g, from Charles River) were housed in groups of 6 in a reversed lighting system of 12h light:dark (lights off 7.00-19.00h). Two weeks after ovariectomy they were used for sexual activity tests. The experiments started at least 5h into the dark period.
It was administered intraperitoneally (i.p.) at a dose of 10mg/kg, in a dosing volume of 1ml/kg. […] Forty eight hours before testing, ovariectomised female rats (as described above), were primed with 5µg oestradiol benzoate dissolved in corn oil and injected subcutaneously. […] The females were placed with a series of vigorous male rats and subjected to 10 mounts.
The lordotic response of the animal was recorded and expressed as a percentage of the mounts (i.e. lordosis quotient, LQ), as previously described. Animals showing LQ<20 were considered non-receptive and were included in the study. Each rat was tested prior to administration of the compound and then tested similarly post-injection.
The above compound was dissolved in PEG200 vehicle and administered orally. […] Both compounds were administered in a 1ml/kg volume.
Forty eight hours before tests, the animals were primed with 5µg oestradiol benzoate (Sigma Chemical. Co. Ltd., UK) dissolved in corn oil and injected subcutaneously. The females were placed with a series of vigorous male rats and subjected to 10 mounts. The lordotic response of the animal was recorded and expressed as a percentage of the mounts (i.e. lordosis quotient, LQ). […] Animals showing higher LQ were not included in the study. Each rat was tested prior to administration of the compound and then tested similarly at 1h and 90min post-injection of the above compound or quinelorane respectively.

The subject of assay [2] is Female New Zealand rabbits. Nature of the assay: Pelvic nerve-stimulated female genital blood flow, anaesthetised rabbit model of sexual arousal. The assay is classed as in vivo. The protocol: Female New Zealand rabbits (~2.5kg) were pre-medicated with a combination of Medetomidine (Domitor®) 0.5ml/kg i.m., and Ketamine (Vetalar®) 0.25ml/kg i.m. whilst maintaining oxygen intake via a face mask. The rabbits were tracheotomised using a Portex™ uncuffed endotracheal tube 3 ID., connected to ventilator and maintained at a ventilation rate of 30-40 breaths per minute, with an approximate tidal volume of 18-20 ml, and a maximum airway pressure of 10 cm H2O. Anaesthesia was then switched to Isoflurane and ventilation continued with O2 at 21/min. The right marginal ear vein was cannulated using a 23G or 24G catheter, and Lactated Ringer solution perfused at 0.5ml/min. The rabbit was maintained at 3% Isoflurane during invasive surgery, dropping to 2% for maintenance anaesthesia.
The left groin area of the rabbit was shaved and a vertical incision was made approximately 5cm in length along the thigh. The femoral vein and artery were exposed, isolated and then cannulated with a PVC catheter (17G) for the infusion of drugs and compounds. Cannulation was repeated for the femoral artery, inserting the catheter to a depth of 10cm to ensure that the catheter reached the abdominal aorta. This arterial catheter was linked to a Gould system to record blood pressure. Samples for blood gas analysis were also taken via the arterial catheter. Systolic and diastolic pressures were measured, and the mean arterial pressure calculated using the formula (diastolic x2 + systolic) ö3. Heart rate was measured via the pulse oxymeter and Po-ne-mah data acquisition software system (Ponemah Physiology Platform, Gould Instrument Systems Inc). A ventral midline incision was made into the abdominal cavity. The incision was about 5cm in length just above the pubis. The fat and muscle was bluntly dissected away to reveal the hypogastric nerve which runs down the body cavity. It was essential to keep close to the side curve of the pubis wall in order to avoid damaging the femoral vein and artery which lie above the pubis. The sciatic and pelvic nerves lie deeper and were located after further dissection on the dorsal side of the rabbit. Once the sciatic nerve is identified, the pelvic nerve was easily located. The term pelvic nerve is loosely applied; anatomy books on the subject fail to identify the nerves in sufficient detail. However, stimulation of the nerve causes an increase in vaginal and clitoral blood flow, and innervation of the pelvic region. The pelvic nerve was freed away from surrounding tissue and a Harvard bipolar stimulating electrode was placed around the nerve. […] A frequency response curve was determined at the start of each experiment in order to determine the optimum frequency to use as a sub-maximal response, normally 4Hz. […]

Each structure is given as a SMILES string.

Consider `COc1ccc(C2(CNC(=O)[C@](C)(Cc3c[nH]c4ccccc34)NC(=O)Nc3ccc([N+](=O)[O-])cc3)CCCCC2)nc1` [Compound (1), (S) 3-(1H-Indol-3-yl)-N-[1-(5-methoxy-pyridin-2-yl)-cyclohexyl-methyl]-2-methyl-2-[3-(4-nitro-phenyl)-ureido]-propionamide], for which, in assay [1], the “lordosis quotient (LQ)” value is on record as “significant (P<0.05) stimulatory effect on the LQ”. Also, the “basal genital blood flow in the absence of PNS” value in assay [2] (15mg/kg sc) is “no effect”. The “pelvic-nerve stimulated (PNS) increases in genital (vaginal and clitoral) blood flow” value in assay [2] (15mg/kg sc in 50% β-cyclodextrin in saline) was “potent enhancer”.
